Laboratory results reported in paper PMC7560342, “In Vitro and In Vivo Evaluation of the Toxic Effects of Dodecylguanidine Hydrochloride” (Toxics, 2020).
“Also recorded” adds a separate entry of the source.

Assays:
Sprague-Dawley rats [1] = assay: Bronchoalveolar lavage fluid (BALF) analysis after acute inhalation; format: in vivo, rat
Description: (§1) The inhalation aerosols of the DGH solutions were generated using an atomizer with a clean air flow of 250 L/min. […] In the acute toxicity test, all the rats in each group were sacrificed immediately after exposure. Temperature, humidity, air flow, and air pressure were monitored during the exposure using a Model VT3-X15 environmental controller (Sibata, Saitama, Japan). The concentration of DGH was analyzed by sampling the chamber air using a SIP-32L (Sibata, Saitama, Japan) and measuring the weight of the membranes (T60A20, Φ55). The mass median aerodynamic diameter (MMAD) and geometric standard deviation (GSD) of DGH in the exposure chamber were measured using an Andersen cascade impactor (AN-200, Sibata, Saitama, Japan).
BALF was obtained from the right lung by lavage (twice) with 3 mL phosphate buffered saline (PBS, pH 7.4, magnesium, and calcium free). The BALF samples were centrifuged (1500 rpm, 4 °C, 10 min) and the cell-free supernatant of the first lavage was used for the determination of LDH, total protein, and inflammatory cytokine levels. LDH activity was measured using the EZ-LDH kit (DoGenBio, Seoul, Korea). Total protein content was quantified using a BCA protein assay kit (iNtRON Biotechnology, Seoul, Korea). To evaluate the inflammatory cytokine levels in BALF, tumor necrosis factor-alpha (TNF-α), interleukin-6 (IL-6), interleukin-1 beta (IL-1β), […], and transforming growth factor-beta 1 (TGF-β1) were determined using a Quantikine® enzyme-linked immunosorbent assay kit (R&D Systems, Minneapolis, MN, USA), according to the manufacturer’s instructions. Cells in all lavages were resuspended in PBS, and the total cell count in BALF was quantified using a Vi-Cell® XR analyzer (Beckman Coulter, Brea, CA, USA). Differential cell counts were performed on cytospin preparations (Shadon, Pittsburgh, PA, USA), and the cells were stained with Diff-Quick (Fisher Scientific, Swedesboro, NJ, USA). Polymorphonuclear leukocytes (PMNs) in the BALF were counted using light microscopy (Olympus, Tokyo, Japan).

Sprague-Dawley rats [2] = assay: Acute inhalation study (4 h aerosol exposure); format: in vivo, rat
Description: Specific-pathogen-free (SPF) male and female Sprague-Dawley (six-week-old) rats were purchased from Orient Bio Inc. (Sungnam, Korea). The temperature and relative humidity of the animal maintenance room was set to 22 ± 3 °C and 30 to 70%, respectively, with a 12:12 h light/dark cycle. Diet (LabDiet 5053, Orient Bio Inc., Sungnam, Korea) and water were supplied ad libitum. Following an acclimatization period of one week, the rats were randomly divided into four groups (five males and five females per group) for the acute inhalation study. All animal experiments were approved by the Animal Care and Use Committee of the National Institute of Environmental Research, Republic of Korea (identification code: NIER-2019-01-01-011; date of approval: 15 May 2019). The left lung of the rats was used for histopathological analysis and the right lung was used for bronchoalveolar lavage fluid (BALF) analysis, including lung cell damage and pulmonary inflammation.
as §1
Hematology and serum biochemistry of ten rats in each group were analyzed, as described in previous studies. Briefly, blood samples of the animals were drawn from the ventral aorta using a syringe, under anesthesia. The blood samples were collected into CBC bottles containing ethylenediaminetetraacetic acid (EDTA) (K2 EDTA, BD vacutainer) and analyzed within 15 min, using an automatic hematology LC-662G, Kyoto, Japan. The following parameters were determined: white blood cell count, red blood cell count, hemoglobin, hematocrit, mean corpuscular volume, mean corpuscular hemoglobin, mean corpuscular hemoglobin concentration, red blood cell volume distribution width, platelets, mean platelet volume, […], and platelet distribution width. Blood samples were drawn from the ventral aorta using a syringe and collected in a serum vacutainer. The sera were collected by centrifugation at 2000 rpm for 10 min within 2 h after collection and stored at −80 °C in a freezer, prior to analysis. The following serum biochemistry parameters were determined using an automatic serum analyzer (Drichem4000, Fuji Photo Film, Tokyo, Japan): alkaline phosphatase, lactate dehydrogenase (LDH), glucose, total cholesterol, glutamic oxaloacetate transaminase, glutamic pyruvate transaminase, urea nitrogen in blood, calcium, inorganic phosphorus, gamma glutamyl transferase, albumin, total protein, creatinine, total bilirubin, sodium, potassium, and chlorine.

A549 cells [3] = assay: Cell membrane damage (LDH leakage) assay; format: cell-based, Human; conditions: 1–5000 μg/mL, 24 h
Description: (§2) Human adenocarcinomic alveolar epithelial (A549) cells were obtained from the Korea Cell Line Bank (Seoul, Korea). Cells were grown in RPMI 1640 medium (Thermo Fisher Scientific, Waltham, MA, USA), containing 10% heat-inactivated fetal bovine serum (Thermo Fisher Scientific, Waltham, MA, USA) and 1% penicillin-streptomycin (Thermo Fisher Scientific, Waltham, MA, USA) under standard cell culture conditions (37 °C, 5% CO2, and 90% humidity).
(§3) A549 cells (1 × 10^4 cells) were incubated in 96-well plates overnight, and various concentrations (1, 10, 100, 1000, and 5000 μg/mL) of the eight selected chemicals were added to the cell culture medium. After 24 h of incubation, cell morphology was observed by optical microscopy, and cell viability was evaluated using EZ-Cytox kit (DoGenBio, Seoul, Korea) by quantifying purple formazan crystals. The membrane integrity was examined using an EZ-lactate dehydrogenase (LDH) kit (DoGenBio, Seoul, Korea) to measure the LDH level released from the cytosol into the culture medium. Absorbance was measured using a microplate reader (Tecan, Salzburg, Austria) at a wavelength of 450 nm.

A549 cells [4] = assay: cells; format: cell-based, Human; conditions: 24 h exposure, WST assay
Description: as §2, §3

A549 cells [5] = assay: Colony formation (clonogenic) assay; format: cell-based, Human; conditions: 10 days
Description: A clonogenic assay was performed by modifying the method of Franken et al.. Briefly, the cells were incubated overnight in six-well plates, at a density of 200 cells per well. DGH (0.00313, 0.00625, 0.0125, 0.025, 0.05, 0.1, and 0.2 μg/mL) and CGP (0.313, 0.625, 1.25, 2.5, 5, 10, and 20 μg/mL) were incubated with the cells for ten days. After incubation, the medium was removed, the cells were washed with phosphate-buffered saline (PBS), fixed with methanol for 10 min on ice, and stained with crystal violet (0.5% crystal violet in 20% methanol). The number of colonies was quantified using light microscopy (Olympus Co., Tokyo, Japan).

[6] = male rats, exposure groups, 4 h
[7] = rats, 8.6–68 mg/m^3, 4 h, vs control

CCCCCCCCCCCCN=C(N)N.Cl [DGH, Dodecylguanidine hydrochloride]
IL-6 level in BALF compared to control groups (Sprague-Dawley rats [1]; [6]): about seven times
MIP-2 level in BALF compared to control groups (Sprague-Dawley rats [1]; [6]): about five times
Increase of ratio of PMNs in BALF (Sprague-Dawley rats [1]; male rats, high 68 mg/m^3, 4 h): > 204 fold
Increase of ratio of PMNs in BALF (Sprague-Dawley rats [1]; male rats, middle 21.3 mg/m^3, 4 h): more than 38.7 fold
Cytokines (MIP-2, TGF-β1, IL-1β, TNF-α, IL-6) in BALF (Sprague-Dawley rats [1]; rats, 8.6–68 mg/m^3, 4 h): increased in a concentration-dependent manner
LDH in BALF (Sprague-Dawley rats [1]; [7]): increased in a concentration-dependent manner; also recorded: significantly increased in all the exposed groups
PMNs in BALF (Sprague-Dawley rats [1]; [7]): increased in a concentration-dependent manner; also recorded: significant increase
Total protein in BALF (Sprague-Dawley rats [1]; [7]): significantly increased in all the exposed groups
Spleen weight (Sprague-Dawley rats [2]; male rats, exposed groups, 4 h): significantly decreased; also recorded: decreased significantly
Body weight vs control (Sprague-Dawley rats [2]; rats, 8.6–68 mg/m^3, 4 h): no significant changes
Deaths (Sprague-Dawley rats [2]; rats, 8.6–68 mg/m^3, 4 h): no deaths occurred; also recorded: no death
Hematology vs control (Sprague-Dawley rats [2]; rats, 8.6–68 mg/m^3, 4 h): no significant changes
Serum biochemistry vs control (Sprague-Dawley rats [2]; rats, 8.6–68 mg/m^3, 4 h): no significant changes
LC50 (inhalation) (Sprague-Dawley rats [2]; rats, exposure for 4 h, estimated): > 68 mg/m^3
Cell membrane damage (LDH leakage) (A549 cells [3]): significant dose-dependent damage to the cell membrane
IC50 (half inhibitory concentration by cell viability assay) (A549 cells [4]): 0.39 µg/mL
Total number of colonies (A549 cells [5]; DGH 0.00313–0.2 μg/mL, CGP 0.313–20 μg/mL): dramatic decrease
Reduction in colony formation compared to the control (A549 cells [5]; DGH 0.025 μg/mL): approximately 50%
